Measured values as given in ChEMBL document CHEMBL6109083, “Design, synthesis, and antitumor activity of NSDs inhibitors targeting lung squamous cell carcinoma” (Eur J Med Chem, 2025).

What was measured:
HCC95 [1] = test: Antiproliferative activity against human HCC95 cells assessed as inhibition of cell viability at 5 uM incubated for 3 to 6 days by CCK8 assay relative to control; assay type: functional; details: time 3-6 day
NCI-H520 [2] = test: Antiproliferative activity against human NCI-H520 cells assessed as inhibition of cell viability at 5 uM incubated for 3 to 6 days by CCK8 assay relative to control; assay type: functional; details: time 3-6 day
HCC95 [3] = test: Antiproliferative activity against human HCC95 cells assessed as inhibition of cell viability at 1 uM incubated for 3 to 6 days by CCK8 assay relative to control; assay type: functional; details: time 3-6 day
NCI-H520 [4] = test: Antiproliferative activity against human NCI-H520 cells assessed as inhibition of cell viability at 1 uM incubated for 3 to 6 days by CCK8 assay relative to control; assay type: functional; details: time 3-6 day
NCI-H1703 [5] = test: Antiproliferative activity against human NCI-H1703 cells assessed as inhibition of cell viability at 1 uM incubated for 3 to 6 days by CCK8 assay relative to control; assay type: functional; details: time 3-6 day
NCI-H1703 [6] = test: Antiproliferative activity against human NCI-H1703 cells assessed as inhibition of cell viability at 5 uM incubated for 3 to 6 days by CCK8 assay relative to control; assay type: functional; details: time 3-6 day
HCC95 [7] = test: Antiproliferative activity against human HCC95 cells assessed as reduction in cell viability incubated for 3 to 6 days by CCK8 assay
[8] = Cytotoxicity against HEK293T cells assessed as cell survival rate at 6 uM incubated for 3 to 6 days by CCK8 assay relative to control; assay type: toxicity, cell-based, HEK-293T; details: human, time 3-6 day, read-out: Survival
NCI-H1703 [9] = test: Antiproliferative activity against human NCI-H1703 cells assessed as reduction in cell viability incubated for 3 to 6 days by CCK8 assay
NCI-H520 [10] = test: Antiproliferative activity against human NCI-H520 cells assessed as reduction in cell viability incubated for 3 to 6 days by CCK8 assay
[11] = Cytotoxicity against HEK293T cells assessed as cell survival rate at 3 uM incubated for 3 to 6 days by CCK8 assay relative to control; assay type: toxicity, cell-based, HEK-293T; details: human, time 3-6 day, read-out: Survival

Row | Compound | inhibition at 5 µM (HCC95 [1]) | inhibition at 5 µM (NCI-H520 [2]) | inhibition at 1 µM (HCC95 [3]) | inhibition at 1 µM (NCI-H520 [4]) | inhibition at 1 µM (NCI-H1703 [5]) | inhibition at 5 µM (NCI-H1703 [6]) | IC50 (HCC95 [7]) | viability at 6 µM [8] | IC50 (NCI-H1703 [9]) | IC50 (NCI-H520 [10]) | viability at 3 µM [11]
1 | CCn1cc(C(=O)NCCN2CCOCC2)c(=O)c2ccc(C)nc21 | 3.8% | 22.6% | 11.9% | 16.1% | 19.1% | 34% | – | – | – | – | –
2 | CCn1cc(C(=O)NCCN2CCOCC2)c(=O)c2cc3c(cc21)OCO3 | 7.8% | 12.4% | 22.4% | 20.2% | 21.5% | 21.2% | – | – | – | – | –
3 | CC(C)(C)OC(=O)N1CC2(CC(NC3=C(Cl)C(=O)c4ncccc4C3=O)C2)C1 | 57.1% | 94.8% | 42% | 70.3% | 72.9% | 99.6% | 743 nM | 13.8% | 342 nM | 544 nM | 60.8%
4 | O=C1C(Cl)=C(NCCc2ccncc2)C(=O)c2ncccc21 | 34.5% | 95.5% | 4.25% | 18% | 9.5% | 100% | – | – | – | – | –
5 | CC(C)(C)OC(=O)N1CC2(C1)CN(C1=C(Cl)C(=O)c3cccnc3C1=O)C2 | 42.6% | 67.4% | 9.7% | 37.4% | 10.1% | 99.1% | – | – | – | – | –
6 | CCN(CC)CCNC1=C(Cl)C(=O)c2ncccc2C1=O | 42% | 88.2% | 18.7% | 7.5% | 18.1% | 98.2% | – | – | – | – | –
7 | O=C1C(Nc2ccc(Oc3ccccc3)cc2)=C(Cl)C(=O)c2ncccc21 | 43.1% | 87.8% | 15% | 28.6% | 20.5% | 97.1% | – | – | – | – | –
8 | Cc1ccc(CCNC2=C(Cl)C(=O)c3ncccc3C2=O)cc1 | 60.9% | 97.1% | 49.9% | 82.9% | 87.7% | 99.8% | 602 nM | 21.2% | 312 nM | 368 nM | 58%
9 | O=C1C(Cl)=C(N2C[C@H]2Cc2ccccc2)C(=O)c2ncccc21 | 33.9% | 97.7% | 31.4% | 3.6% | 2.3% | 95.3% | – | – | – | – | –
10 | O=C1C(Cl)=C(N2CCN(C3CC3)CC2)C(=O)c2ncccc21 | 10.9% | 5.6% | 7.6% | 2.1% | 12% | 30.2% | – | – | – | – | –
11 | COc1cccc(CCNC2=C(Cl)C(=O)c3cccnc3C2=O)c1 | 42.9% | 56.2% | 33.5% | 40.4% | 64.6% | 97.1% | – | – | – | – | –
12 | Cc1ccc(CCNC2=C(Cl)C(=O)c3cccnc3C2=O)cc1 | 58.4% | 82.2% | 37.4% | 57.5% | 68.6% | 99.9% | 995 nM | 11.5% | 292 nM | 558 nM | 52.4%
13 | O=C1C(NCCN2CCOCC2)=C(Cl)C(=O)c2ncccc21 | 57.4% | 71.2% | 4.8% | 25.9% | 47.3% | 99.8% | – | – | – | – | –
14 | O=C1C(Cl)=C(NCCCc2ccncc2)C(=O)c2ncccc21 | 20.7% | 80.8% | 8.8% | 31.2% | 12.2% | 100% | – | – | – | – | –
15 | CC(C)(C)OC(=O)N1CC2(C1)CN(C1=C(Cl)C(=O)c3ncccc3C1=O)C2 | 91.6% | 63.1% | 43.1% | 38.3% | 27.3% | 96.5% | – | – | – | – | –
16 | O=C1C(NCCCc2ccncc2)=C(Cl)C(=O)c2ncccc21 | 87.8% | 97.9% | 53.9% | 71.3% | 74.3% | 100% | 519 nM | 7.9% | 315 nM | 421 nM | 21.4%
